The record followed here is patent publication US20110212475A1, “Fluorescently Or Spin-Labeled Kinases For Rapid Screening And Identification Of Novel Kinase Inhibitor Scaffolds” (priority 2008, published 2011).

Assay [1] concerns the target T1, p38α (Homo sapiens, UniProt Q16539, A172C/C119S/C162S/F327L).
T1 construct: His-tag with PreScission site (N, cleaved yes); GST (N); made in house; host or cells: E. coli BL21(DE3)
Kind of assay: ac-p38α real-time fluorescence measurements of binding and dissociation kinetics. The note with it: for real-time fluorescence response upon addition to ac-p38α: cuvette method, acrylodan emission at 468 nm; for t1/2 of dissociation: t1/2 = ln 2/kobs. How it is done: The conditions for such measurements are currently being further optimized (buffer, temperature, protein and inhibitor concentrations, length of incubation).
The addition of excess kinase causes the inhibitor to redistribute, resulting in a net dissociation of inhibitor from ac-p38α and a fluorescence increase which was fit to a first-order function.
After measuring koff for allosteric compounds, Applicants established conditions for measuring the kon of the same compounds. This was accomplished using the cuvette method by adding various concentrations of inhibitor to ac-p38α and fitting the fluorescence decay to a first-order function.

Assay [2] has as its target T1, p38α. The experiment in a line: HTS screen with acrylodan-labeled p38α, 384-well secondary screen for Kd. The format is binding. The note with it: compounds HTS 1-15. On the procedure:
The complete screen was carried out by first using the labeled kinase binding assay in a 384-well HTS format to initially screen for possible ligands for the DFG-out conformation, or DFG-out binders. This was accomplished by first performing a primary screen at a single concentration of each ligand, followed by a secondary screen over a range of concentrations to directly determine the Kd of each potential hit.
The methods for the setup and execution of the screen are provided below. […] Large volumes of the same buffer were also use to prepare solutions for pipetting background (no labeled kinase added) and screening plates (+100 nM acrylodan-labeled p38α).
An industrial pipetting robot was used to first dispense […] of pre-diluted compounds into a set of two 384-well small volume assay plates. Subsequently, 15 μl of buffer was added to the background plate while the same volume of buffer containing the labeled kinase was added to the screening plate to detect DFG-out binders. […] A Tecan Safire^2 instrument was used to measure the fluorescence read-out in the 384-well plate format.
A secondary screen was carried out also in 384-well plates using a range of concentrations (100 nM to 50 μM) of each ligand in order to generate binding curves or identify false hits which were picked up due to high degrees of fluorescence interference. […] As before, large volumes of the same buffer were also used to prepare solutions for pipetting background (no labeled kinase added) and screening plates (+100 nM acrylodan-labeled p38α). The pipetting robot was used to first dispense 3.5 μl of pre-diluted compounds into a set of two 384-well small volume assay plates. Each plate contained no more than 7 different compounds identified in the primary screen, each screened at 10 concentrations (100 nM to 50 μM) and 4 wells per concentration. Subsequently, 3.5 μl of buffer was added to the background plate while the same volume of buffer containing the labeled kinase was added to the screening plate. Plates were sealed, incubated and measured as described for the primary screen. […] An exemplary sample plate layout is shown below.
Where indicated, binding curves were also plotted as % p38α bound by the ligand. The % p38α bound is calculated as follows: […]

For assay [3], the target named is p38α (Homo sapiens, UniProt Q16539). The experiment in a line: HTRF kinase assay (CisBio), activity-based, p38α. The format is biochemical. The conditions noted are these: compounds HTS 1-15.
Chain of p38α (Homo sapiens, UniProt Q16539) (Q16539 whole entry): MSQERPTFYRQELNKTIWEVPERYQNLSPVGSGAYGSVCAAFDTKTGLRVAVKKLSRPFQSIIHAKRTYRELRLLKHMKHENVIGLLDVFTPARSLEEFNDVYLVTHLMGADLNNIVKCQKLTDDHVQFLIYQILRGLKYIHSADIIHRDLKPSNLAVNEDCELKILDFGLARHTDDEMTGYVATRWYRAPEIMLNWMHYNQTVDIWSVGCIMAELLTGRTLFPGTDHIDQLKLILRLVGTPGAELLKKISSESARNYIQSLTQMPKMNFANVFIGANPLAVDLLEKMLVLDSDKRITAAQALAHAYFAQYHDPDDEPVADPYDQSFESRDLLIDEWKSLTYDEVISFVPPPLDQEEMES
The target in assay [4] is T1, p38α. The experiment in a line: acrylodan-labeled p38α (ac-p38α) fluorescence binding assay, endpoint Kd measurements. The note with it: for Kd: pyrazolourea derivatives of BIRB-796, 50 nM ac-p38α, cuvettes.
Assay [5] deals with T2, cSrc (Gallus gallus, UniProt P00523, C277S/C483S/C496S/L407C).
T2 construct: The chicken cSrc gene (residues 251-533); His tag with PreScission site (N, cleaved yes); made in house; host or cells: E. coli BL21(DE3) Codon+RIL
The experiment in a line: acrylodan-labeled cSrc fluorescence binding assay. Also on record: species or system chicken. The note with it: any concentration.
Procedure: Acrylodan-labeled cSrc (50 nM) was placed into cuvettes with a rapidly stirring mini stir bar while monitoring acrylodan fluorescence (left panel).
Crystal structures of chicken cSrc (kinase domain) in the DFG-in and DFG-out conformations were closely examined to identify a suitable fluorophore attachment site near the N-terminal end of the activation loop of cSrc which would report the binding of allosteric inhibitors by sensing changes in the activation loop conformation. Care was taken to not choose residues that were known phosphorylation sites or other sites that appeared to be critical to maintaining protein stability. A Cys was introduced into the chosen position (L407C) by site-directed mutagenesis while non-specific labeling was minimized by conservatively mutating other solvent exposed Cys into Ser (C277S, C483S, C496S).
Pure cSrc kinase containing the labeling site Cys mutation (L407C) and acrylodan (dissolved in DMF) were combined in buffer (pH 7.0) at a ratio of 1:1.5 protein:fluorophore and allowed to react in the dark overnight at 4° C. […] The labeled cSrc was then aliquoted, kept dark and frozen at −20° C.
Screening initiatives were carried out for acrylodan-labeled cSrc in 384-well plates. Stocks of candidate compounds were prepared in DMSO at 20× the final desired concentration. […]

The test system of assay [6] is DU145 cells. The experiment in a line: immunoblot analysis of pSrc and pFAK in DU145 cells. The format is cell-based. The note with it: 5 hr treatment; 11c 1, 2, 5, 10 μM, dasatinib 100 nM. How it is done:
(§1) PC3 and DU145 were generously provided by Dr. Roman Thomas (Max Planck Institute for Neurological Research, Cologne). The cells were cultured in Dulbecco's modified Eagle's medium (DMEM) supplemented with 10% heat-inactivated fetal bovine serum (FBS) and 100 units/mL penicillin/streptomycin. Cells were cultured at 37° C. in humidified air containing 5% CO2. After inhibitor treatment (5 h), the cells were washed twice in cold phosphate-buffered saline (PBS) and then lysed for 10 min on ice in lysis buffer (20 mM Tris-HCl pH 7.5, 150 mM NaCl, 1% Triton, 1 mM Na2EDTA, 1 mM EGTA, 2.5 mM sodium pyrophosphate, 1 mM β-glycerophosphate, 1 mM Na3VO4, 1 μg/mL leupeptin, 1 mM PMSF, and common protease inhibitors). Subsequently, cells were centrifuged for 20 min at 20000×g and 4° C. The supernatant was subjected to immunoblot analysis.
(§2) Protein concentration was measured using a spectrophotometer (ND-1000, peQLab). Equal amounts of protein were separated by SDS-PAGE and transferred to nitrocellulose membranes. […] After washing, blots were incubated with secondary antibodies and then detected on film using the enhanced chemiluminescence (ECL) detection system.
(§3) Applicants monitored the phosphorylation state of Y416—an autophosphorylation site in the activation loop of cSrc—and Y576/Y577—two residues in the activation loop of focal adhesion kinase (FAK). […]

The test system of assay [7] is DU145 cells. Kind of assay: cell-to-cell contacts by light microscopy, DU145 cells. The format is cell-based. The conditions noted are these: 24 hours treatment; 11c 10 μM, dasatinib 100 nM. The source says: (§4) Reduction of cell-to-cell-contacts and cell proliferation in PC3 and DU145 cells by (11c, RL46). […] Total expression of FAK was unchanged while cSrc expression was increased in both cell lines. (b). Cell-to-cell contacts visualized by light microscopy at 10× magnification.

For assay [8], the system named is PC3 cells. Kind of assay: cell-to-cell contacts by light microscopy, PC3 cells. The conditions noted are these: 24 hours treatment; 11c 10 μM, dasatinib 100 nM. The class given is cell-based.
From the text: as §4

The test system of assay [9] is PC3 cells. The experiment in a line: immunoblot analysis of pSrc and pFAK in PC3 cells. The format is cell-based. The conditions noted are these: 5 hr treatment; 11c 1, 2, 5, 10 μM, dasatinib 100 nM. How it is done:
as §1, §2, §3

T1 sequence (Q16539 whole entry C119S/C162S/A172C/F327L): as the sequence (Q16539 whole entry) above, with C119S, C162S, A172C, F327L counted along it

Take `Fc1ccc(-c2nc3n(c2-c2ccncc2)CCS3)cc1` [SKF86002, reference compound]: in assay [1], the “real-time fluorescence response upon addition to ac-p38α” value is on record as “instantaneous response”. The term Kd denotes the free concentration of one partner at which half of the binding sites on the other are occupied at equilibrium, for simple one-to-one binding. By IC50 is commonly meant the concentration that gives 50% inhibition. Read a high IC50 as lower potency. `CCc1ccc(NCc2cc3cc(OC)c(OC)cc3n(CC(=O)Nc3cc(C)ccc3C)c2=O)cc1` [HTS 9] showed a Kd in assay [2] of 24.9 ± 4.9 µM. Further, the 50% inhibitory concentration (IC50) in assay [3] is 25.6 ± 4.7 µM. The like results for `NS(=O)(=O)c1ccc(CCNc2nc3c(-c4cccc(C(F)(F)F)c4)nnn3c3ccccc23)cc1` [HTS 6] were, in that order, 0.301 ± 0.059 µM and above 50 µM. The compound `Cc1ccc(NCc2cc3cc4c(cc3n(CC(=O)Nc3ccccc3F)c2=O)OCCO4)cc1` [HTS 10] returned a dissociation constant Kd in assay [2] of 29.4 ± 4 µM. In assay [3], inhibition was half-maximal at 31.3 ± 17.2 µM (IC50).

Compound `Brc1cccc(-c2nc3cnccn3c2NC2CCCC2)c1` [HTS 15] had a Kd in assay [2] of 27.5 ± 5.3 µM. `Cc1ccc(-n2nc(C(C)(C)C)cc2NC(=O)Nc2ccc(Cl)cc2)cc1` [12c, RL17]: in assay [4] (read-out: Kd), the Kd is 0.034 µM.

`COC(=O)C1=CO[C@@H](C)[C@H]2CN3CCc4c([nH]c5cc(OC)ccc45)[C@H]3C[C@@H]12` [HTS 3] displayed a Kd in [2] of 2.2 ± 0.11 µM. Moreover, the IC50 in assay [3] was found to be 18.3 ± 7.2 µM. As for `CC(C)(C)c1cc(NC(=O)Nc2ccc(Cl)cc2)n(-c2ccc(C(F)(F)F)cc2Cl)n1` [7, RL19], the fluorescence ratio response entry in [5] was “did not respond”. Moreover, in assay [4] (endpoint measurements), the “fluorescence response of ac-p38α” value is listed as “complete lack of fluorescence response”. Besides, the Kd entry in assay [4] was “No Binding”.

In assay [1], `CNC(=O)c1cc(Oc2ccc(NC(=O)Nc3ccc(Cl)c(C(F)(F)F)c3)cc2)ccn1` [sorafenib, reference compound] came in with a t1/2 of dissociation of 2.4 min. For the compound `CC(=O)Nc1ccc(C(=O)Nc2ccc(-c3nc4cc(NC(=O)c5ccc(NC(C)=O)cc5)ccc4[nH]3)cc2)cc1` [HTS 7], binding in assay [2] was put at a Kd of 6.18 ± 2.31 µM. 15.3 ± 2.8 µM corresponded to half-maximal inhibition in assay [3] (IC50). Take `Cc1cccc(-n2nc(C(C)(C)C)cc2NC(=O)Nc2ccc(Cl)cc2)c1` [12a, RL29]: the t1/2 of dissociation in assay [1] is listed as 52.3 min. Regarding `Cc1ccc(-n2nc(C(C)(C)C)cc2NC(=O)Nc2cccc3ccccc23)cc1` [14a, RL36], the equilibrium dissociation constant (Kd) in assay [4] (read-out: Kd) is 0.011 µM. Compound `O=C(CN1C(=O)c2cccc3cccc1c23)Nc1cccc(C(F)(F)F)c1` [HTS 5] registered a Kd in [2] of 3.1 ± 0.91 µM. This compound also showed an IC50 in assay [3] above 50 µM.

The compound `Clc1cccc(-c2nc3cnccn3c2NC2CCCCC2)c1` [HTS 14] yielded a Kd in assay [2] of 100 ± 5.8 µM. Take `O=C(c1ccc(CSc2nc3ccncc3[nH]2)cc1)N1CCC(Cc2ccccc2)CC1` [HTS 11]: binding in assay [2] was characterised by a dissociation constant (Kd) of 2.3 ± 0.57 µM. In [3], this compound displayed an IC50 of 2.6 ± 0.92 µM. In the same order, the values of `Fc1cccc(COc2ccc(Nc3ncnc4ccccc34)cc2Cl)c1` [HTS 4] are 10.3 ± 2.2 µM and above 50 µM.

In assay [3], `O=C(CSc1cn(CCNC(=O)c2cccc(C(F)(F)F)c2)c2ccccc12)Nc1ccc2c(c1)OCCO2` [HTS 13] showed an IC50 of 1.1 ± 0.4 µM.

Take `Cc1nc(Nc2ncc(C(=O)Nc3c(C)cccc3Cl)s2)cc(N2CCN(CCO)CC2)n1` [Dasatinib]: the “pSrc and pFAK levels” value in assay [6] and in assay [9] was “markedly reduced” throughout. The “cell-to-cell contacts and intact cells” value is “markedly reduced cell-to-cell-contacts and fewer intact cells” in assay [7]; “markedly reduced cell-to-cell-contacts and fewer intact cells” in assay [8]. In [1], the “real-time fluorescence response upon addition to ac-p38α” value is “instantaneous fluorescence response”. In [2], `Cc1ccc(C(=O)NCCC23CC4CC(CC(C4)C2)C3)cc1NC1=NC2CS(=O)(=O)CC2S1` (stereo not drawn) [HTS 12] came in with a dissociation constant (Kd) of 1.3 ± 0.08 µM. Also, in [3], the IC50 worked out at 11 ± 1.5 µM. This compound returned a t1/2 of binding in [1] (HTS hit, real-time kinetic measurement) of around 0.633 min. With `Cc1ccccc1-n1nc(C(C)(C)C)cc1NC(=O)Nc1ccc(Cl)cc1` [12D, RL15], the dissociation constant (Kd) in [4] (read-out: Kd) came to 0.347 µM. In [3], `CCOC(=O)c1c(C)c(C(=O)N2CCN(Cc3ccccc3)CC2)c(C)n1CC` [HTS 8] displayed an IC50 of 2.6 ± 0.9 µM. `Cc1ccc(-n2nc(C(C)(C)C)cc2NC(=O)Nc2ccc(OCCN3CCOCC3)cc2)cc1` [15, RL39] returned a t1/2 of dissociation in [1] of 11.2 min.

`Cc1ccc(-n2nc(C(C)(C)C)cc2NC(=O)Nc2ccc(Cl)cc2)cc1Cl` [12b, RL18]: the Kd in assay [4] (read-out: Kd) worked out at 0.018 µM.
